This note sets out measurements from ChEMBL document CHEMBL2331193, “Structure-based fragment screening is demonstrated to be a practical lead discovery method for a representative G-protein-coupled receptor” (J Med Chem, 2013).

This experiment deals with Beta-1 adrenergic receptor (Homo sapiens, UniProt P08588). The experiment is described as follows: Binding affinity to beta1 adrenergic receptor (unknown origin).
Beta-1 adrenergic receptor, sequence (P08588 whole entry): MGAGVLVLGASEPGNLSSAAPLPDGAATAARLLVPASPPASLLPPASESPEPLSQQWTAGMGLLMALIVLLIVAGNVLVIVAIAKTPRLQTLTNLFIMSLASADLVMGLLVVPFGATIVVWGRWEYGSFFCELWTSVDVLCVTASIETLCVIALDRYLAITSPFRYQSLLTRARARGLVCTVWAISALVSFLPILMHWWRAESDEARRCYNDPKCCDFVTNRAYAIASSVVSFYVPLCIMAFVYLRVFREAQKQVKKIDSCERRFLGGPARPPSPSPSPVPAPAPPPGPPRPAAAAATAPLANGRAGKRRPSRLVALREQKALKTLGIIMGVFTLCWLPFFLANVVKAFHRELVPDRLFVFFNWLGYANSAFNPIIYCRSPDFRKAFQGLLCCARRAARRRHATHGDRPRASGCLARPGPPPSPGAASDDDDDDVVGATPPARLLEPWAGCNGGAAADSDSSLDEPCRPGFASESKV

Broadly, the Ki is the dissociation constant of the complex between target and ligand, obtained from inhibition or displacement. A low value points to tighter binding. For the compound `Cc1cc(N2CCNCC2)nc2ccccc12`, the Ki is 220 nM.
